Data from patent publication US20090227607A1, “DEAZAPURINES USEFUL AS INHIBITORS OF JANUS KINASES” (priority 2006, published 2009).

Assays:
[1] = target: JAK-2 enzyme (Homo sapiens, UniProt O60674); test: JAK2 Inhibition Assay; assay type: biochemical; details: 15 μM poly(Glu)4Tyr, 12 μM ATP, 25° C.
How it was run: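 JAK2 kinase in HEPES pH 7.4 buffer with MgCl2, DTT, NaCl and BSA; final 15 μM poly(Glu)4Tyr and 12 μM [33P]ATP. Enzyme added to start, 20 min at 25 °C, TCA stop, filter capture and scintillation count of 33P incorporation; Ki values.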

[2] = target: T1, JAK3 (Homo sapiens, UniProt P52333); test: JAK3 Inhibition Assay; assay type: biochemical; details: 1 μM poly(Glu)4Tyr, 5 μM ATP, 1 nM JAK3, 25° C.; read-out: JAK3 enzyme inhibition data (Ki)
T1 sequence (P52333 1-1124): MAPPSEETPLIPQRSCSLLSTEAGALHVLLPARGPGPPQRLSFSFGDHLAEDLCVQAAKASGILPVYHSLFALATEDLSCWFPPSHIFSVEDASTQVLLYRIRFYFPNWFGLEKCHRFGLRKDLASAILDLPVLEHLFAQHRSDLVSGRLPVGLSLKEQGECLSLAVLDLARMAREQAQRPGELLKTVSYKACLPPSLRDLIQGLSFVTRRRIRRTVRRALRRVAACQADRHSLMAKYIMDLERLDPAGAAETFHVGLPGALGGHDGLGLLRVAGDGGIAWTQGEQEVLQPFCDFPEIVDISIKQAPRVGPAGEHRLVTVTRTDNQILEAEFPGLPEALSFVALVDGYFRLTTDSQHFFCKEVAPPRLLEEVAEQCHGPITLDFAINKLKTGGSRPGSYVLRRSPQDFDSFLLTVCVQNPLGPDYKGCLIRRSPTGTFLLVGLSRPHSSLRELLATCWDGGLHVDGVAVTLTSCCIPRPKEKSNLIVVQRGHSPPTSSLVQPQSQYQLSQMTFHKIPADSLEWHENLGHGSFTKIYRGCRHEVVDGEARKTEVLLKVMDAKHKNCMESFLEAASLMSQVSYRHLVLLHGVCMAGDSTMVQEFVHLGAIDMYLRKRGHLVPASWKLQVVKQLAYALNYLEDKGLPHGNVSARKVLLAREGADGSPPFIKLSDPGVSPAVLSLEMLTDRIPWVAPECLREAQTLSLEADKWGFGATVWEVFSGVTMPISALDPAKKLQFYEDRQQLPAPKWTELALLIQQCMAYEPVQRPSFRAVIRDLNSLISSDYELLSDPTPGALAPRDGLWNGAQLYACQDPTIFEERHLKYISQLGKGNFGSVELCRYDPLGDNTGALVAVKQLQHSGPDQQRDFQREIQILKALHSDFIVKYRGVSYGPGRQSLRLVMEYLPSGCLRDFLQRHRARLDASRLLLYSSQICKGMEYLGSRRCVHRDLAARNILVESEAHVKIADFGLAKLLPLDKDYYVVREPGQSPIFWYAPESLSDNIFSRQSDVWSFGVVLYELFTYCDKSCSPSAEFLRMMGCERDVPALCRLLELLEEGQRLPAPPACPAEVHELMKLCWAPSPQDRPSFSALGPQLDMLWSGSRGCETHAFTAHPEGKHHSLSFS
How it was run: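 Radiometric JAK3 (1 nM) reaction with 5 μM [33P]ATP and 1 μM poly(Glu)4Tyr in HEPES pH 7.4 buffer, run for 20 min at 25 °C. Reactions were stopped with TCA and filter-captured, and 33P incorporation was counted; values reported as Ki.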

Sequence of JAK-2 enzyme (O60674 whole entry, species assumed): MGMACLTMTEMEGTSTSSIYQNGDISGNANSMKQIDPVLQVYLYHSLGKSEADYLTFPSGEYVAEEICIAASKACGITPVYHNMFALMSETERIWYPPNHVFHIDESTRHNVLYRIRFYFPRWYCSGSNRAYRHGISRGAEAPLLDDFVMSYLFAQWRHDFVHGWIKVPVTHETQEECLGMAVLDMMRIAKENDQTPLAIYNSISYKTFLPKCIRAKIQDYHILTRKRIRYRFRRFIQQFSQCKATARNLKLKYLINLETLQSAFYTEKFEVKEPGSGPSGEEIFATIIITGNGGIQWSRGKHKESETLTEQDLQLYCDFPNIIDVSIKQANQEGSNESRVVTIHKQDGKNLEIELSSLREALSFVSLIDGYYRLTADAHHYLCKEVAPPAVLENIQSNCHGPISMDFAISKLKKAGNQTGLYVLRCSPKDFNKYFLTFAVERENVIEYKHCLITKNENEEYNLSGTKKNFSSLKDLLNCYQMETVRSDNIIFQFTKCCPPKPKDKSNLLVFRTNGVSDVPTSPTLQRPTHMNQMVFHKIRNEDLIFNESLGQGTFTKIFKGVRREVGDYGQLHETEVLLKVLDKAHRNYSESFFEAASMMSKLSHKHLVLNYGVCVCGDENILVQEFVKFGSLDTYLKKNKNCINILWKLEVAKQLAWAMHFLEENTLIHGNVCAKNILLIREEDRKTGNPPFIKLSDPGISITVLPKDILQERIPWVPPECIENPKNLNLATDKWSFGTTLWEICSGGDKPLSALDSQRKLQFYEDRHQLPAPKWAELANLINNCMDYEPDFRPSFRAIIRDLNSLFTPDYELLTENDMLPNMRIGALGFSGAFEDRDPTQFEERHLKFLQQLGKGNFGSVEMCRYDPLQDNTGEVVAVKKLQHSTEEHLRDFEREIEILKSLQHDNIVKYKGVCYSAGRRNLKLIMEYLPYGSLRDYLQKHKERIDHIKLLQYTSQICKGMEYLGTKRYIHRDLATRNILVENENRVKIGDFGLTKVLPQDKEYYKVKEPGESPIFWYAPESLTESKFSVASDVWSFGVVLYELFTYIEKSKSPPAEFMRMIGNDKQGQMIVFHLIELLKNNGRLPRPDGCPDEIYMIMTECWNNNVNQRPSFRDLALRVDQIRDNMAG

SMILES	Ki [1]	Ki [2]
O=C1[C@H]2CCCC[C@H]2C(=O)N1c1nc(-c2ncnc3[nH]ccc23)cs1 [Compound 181]	100 to 500 nM	100 to 500 nM
COC(=O)[C@@H]1CC[C@H](C(=O)Nc2nc(-c3ncnc4[nH]ccc34)cs2)C1 [Compound 182]	< 100 nM	100 to 500 nM
N#CCCN(CC1CC1)C(=O)c1coc(-c2ncnc3[nH]ccc23)c1 [Compound 183]	< 100 nM	< 100 nM
CCC1CC[C@@H](CC)N1C(=O)c1cc(-c2ncnc3[nH]ccc23)c[nH]1 (stereo partly drawn) [Compound 184]	< 100 nM	100 to 500 nM
CC[C@@H]1CC[C@@H](CC)N1C(=O)c1cc(-c2ncnc3[nH]ccc23)c[nH]1 [Compound 185]	< 100 nM	100 to 500 nM
O=C(c1cc(-c2ncnc3[nH]ccc23)c[nH]1)N(CC1CCCC1)CC(F)(F)F [Compound 186]	< 100 nM	100 to 500 nM
CC(C)CN(CCC#N)C(=O)c1cc(-c2ncnc3[nH]ccc23)c[nH]1 [Compound 187]	< 100 nM	< 100 nM
O=C(c1cc(-c2ncnc3[nH]ccc23)c[nH]1)N(CCC(F)(F)F)C1CCCC1 [Compound 188]	< 100 nM	100 to 500 nM
CC#CCN(CC(C)C)C(=O)c1cc(-c2ncnc3[nH]ccc23)c[nH]1 [Compound 189]	< 100 nM	< 100 nM
CC#CCN(C(=O)c1cc(-c2ncnc3[nH]ccc23)c[nH]1)C1CCCCC1 [Compound 190]	100 to 500 nM	500 to 5000 nM
O=C(c1ccc(-c2ncnc3[nH]ccc23)o1)N(CC1CCCC1)CC(F)(F)F [Compound 191]	< 100 nM	< 100 nM
CC(C)CN(CCC#N)C(=O)c1ccc(-c2ncnc3[nH]ccc23)o1 [Compound 192]	< 100 nM	< 100 nM
O=C(c1ccc(-c2ncnc3[nH]ccc23)o1)N(CCC(F)(F)F)C1CCCC1 [Compound 193]	< 100 nM	< 100 nM
CC[C@@H]1CC[C@@H](CC)N1C(=O)c1ccc(-c2ncnc3[nH]ccc23)o1 [Compound 194]	< 100 nM	< 100 nM
O=C(c1coc(-c2ncnc3[nH]ccc23)c1)N(CC1CC1)CC(F)(F)F [Compound 195]	< 100 nM	100 to 500 nM
O=C(c1coc(-c2ncnc3[nH]ccc23)c1)N(CCC(F)(F)F)CC1CC1 [Compound 196]	< 100 nM	100 to 500 nM
CC1CC[C@@H](C)N1C(=O)c1coc(-c2ncnc3[nH]ccc23)c1 (stereo partly drawn) [Compound 197]	< 100 nM	500 to 5000 nM
CCCCN(CC)C(=O)c1cc(-c2ncnc3[nH]cc(Cl)c23)c[nH]1 [Compound 198]	< 100 nM	< 100 nM
CCN(Cc1ccccc1)C(=O)c1cc(-c2ncnc3[nH]cc(Cl)c23)c[nH]1 [Compound 199]	< 100 nM	< 100 nM
COCCN(C)C(=O)c1cc(-c2ncnc3[nH]cc(C)c23)c[nH]1 [Compound 200]	100 to 500 nM	500 to 5000 nM
CCCCN(CC)C(=O)c1cc(-c2ncnc3[nH]cc(C)c23)c[nH]1 [Compound 201]	< 100 nM	100 to 500 nM
CCN(Cc1ccccc1)C(=O)c1cc(-c2ncnc3[nH]cc(C)c23)c[nH]1 [Compound 202]	< 100 nM	100 to 500 nM
Cc1c[nH]c2ncnc(-c3c[nH]c(C(=O)N(C)CCc4ccccc4)c3)c12 [Compound 203]	< 100 nM	100 to 500 nM
Cc1c[nH]c2ncnc(-c3c[nH]c(C(=O)N4C(C)C=CC4C)c3)c12 (stereo not drawn) [Compound 204]	< 100 nM	100 to 500 nM
CCCCCN(C)C(=O)c1cc(-c2ncnc3[nH]cc(C)c23)c[nH]1 [Compound 205]	< 100 nM	100 to 500 nM
CCCN(CC)C(=O)c1cc(-c2ncnc3[nH]cc(C)c23)c[nH]1 [Compound 206]	< 100 nM	100 to 500 nM

SMILES	Ki [1]	Ki [2]
CCN(CCC#N)C(=O)c1cc(-c2ncnc3[nH]cc(C)c23)c[nH]1 [Compound 207]	< 100 nM	100 to 500 nM
Cc1c[nH]c2ncnc(-c3c[nH]c(C(=O)N(CCC(F)(F)F)CC4CC4)c3)c12 [Compound 208]	< 100 nM	< 100 nM
CCCCN(CCC)C(=O)c1cc(-c2ncnc3[nH]cc(C)c23)c[nH]1 [Compound 209]	< 100 nM	100 to 500 nM
CC(C)N(CCC(F)(F)F)C(=O)c1ccc(-c2ncnc3[nH]ccc23)o1 [Compound 210]	< 100 nM	< 100 nM
CC(C)CN(CCC(F)(F)F)C(=O)c1ccc(-c2ncnc3[nH]ccc23)o1 [Compound 211]	< 100 nM	< 100 nM
O=C(c1ccc(-c2ncnc3[nH]ccc23)o1)N(CCC(F)(F)F)CC1CCCC1 [Compound 212]	< 100 nM	< 100 nM
C[C@@H]1CC[C@@H](C)N1C(=O)c1cc(-c2ncnc3[nH]cc(Cl)c23)c[nH]1 [Compound 213]	< 100 nM	< 100 nM
O=C(NCc1ccccc1)c1cc(-c2ncnc3[nH]ccc23)c[nH]1 [Compound 214]	< 100 nM	< 100 nM
O=C(c1ccc(-c2ncnc3[nH]ccc23)o1)N(CCC(F)(F)F)CC1CCC1 [Compound 215]	< 100 nM	< 100 nM
O=C(c1ccc(-c2ncnc3[nH]ccc23)o1)N(CC1CCC1)CC(F)(F)F [Compound 216]	< 100 nM	< 100 nM
C=CCN(CC=C)C(=O)c1ccc(-c2ncnc3[nH]ccc23)o1 [Compound 217]	< 100 nM	< 100 nM
CC1CCCN1C(=O)c1ccc(-c2ncnc3[nH]ccc23)o1 (stereo not drawn) [Compound 218]	< 100 nM	100 to 500 nM
O=C(c1ccc(-c2ncnc3[nH]ccc23)o1)N1CCCC1 [Compound 219]	100 to 500 nM	500 to 5000 nM
C=CCN(C(=O)c1ccc(-c2ncnc3[nH]ccc23)o1)[C@H](C)c1ccccc1 [Compound 220]	< 100 nM	100 to 500 nM
NC(=O)C1CCCN1C(=O)c1ccc(-c2ncnc3[nH]ccc23)o1 (stereo not drawn) [Compound 221]	500 to 5000 nM	500 to 5000 nM
C=CCN(C(=O)c1ccc(-c2ncnc3[nH]ccc23)o1)[C@@H](C)c1ccccc1 [Compound 222]	< 100 nM	< 100 nM
Cn1cc(-c2ncnc3[nH]ccc23)cc1C(=O)N(CCC(F)(F)F)CC1CCC1 [Compound 223]	< 100 nM	< 100 nM
C[C@@H]1CC[C@@H](C)N1C(=O)c1cc(-c2ncnc3[nH]ccc23)cn1C [Compound 224]	< 100 nM	100 to 500 nM
Cn1cc(-c2ncnc3[nH]ccc23)cc1C(=O)N(CCC(F)(F)F)CC1CC1 [Compound 225]	< 100 nM	< 100 nM
Cn1cc(-c2ncnc3[nH]ccc23)cc1C(=O)N(CCC#N)CC1CC1 [Compound 226]	< 100 nM	< 100 nM
O=C(c1cc(-c2ncnc3[nH]cc(Cl)c23)c[nH]1)N(CCC(F)(F)F)CC1CC1 [Compound 227]	< 100 nM	< 100 nM
Cn1cc(-c2ncnc3[nH]ccc23)cc1C(=O)N(CC1CC1)CC(F)(F)F [Compound 228]	< 100 nM	< 100 nM
O=C(c1cc(-c2ncnc3[nH]ccc23)co1)N(CCC(F)(F)F)CC1CC1 [Compound 229, N-(cyclopropylmethyl)-4-(7H-pyrrolo[2,3-d]pyrimidin-4-yl)-N-(3,3,3-trifluoropropyl)furan-2-carboxamide]	< 100 nM	100 to 500 nM
N#CCCN(CCC(F)(F)F)C(=O)c1cc(-c2ncnc3[nH]ccc23)co1 [Compound 230, N-(2-cyanoethyl)-4-(7H-pyrrolo[2,3-d]pyrimidin-4-yl)-N-(3,3,3-trifluoropropyl)furan-2-carboxamide]	< 100 nM	100 to 500 nM
O=C(c1cc(-c2ncnc3[nH]ccc23)co1)N(CC1CC1)CC(F)(F)F [Compound 231, N-(cyclopropylmethyl)-4-(7H-pyrrolo[2,3-d]pyrimidin-4-yl)-N-(2,2,2-trifluoroethyl)furan-2-carboxamide]	< 100 nM	< 100 nM
